# Source: patent publication EP4238972A1, “SUBSTITUTED 1,2,4-THIADIAZOLYL PICOLINAMIDES, SALTS OR N-OXIDES THEREOF AND THEIR USE AS HERBICIDALLY ACTIVE SUBSTANCES” (Bayer AG, priority 2022, dated 2023)
# Legend:
# Type in all cases: in vivo
# Veronica persica [1] = assay: Herbicidal pre-emergence action; details: 1280 g/ha, visual grading after ca. 3 weeks vs untreated controls
# Text: (§1) Seeds of mono- and dicotyledonous weed plants were sown in plastic pots (double sowings with one species of mono- and one species of dicotyledonous weed plants per pot), in sandy loam, and covered with soil. The compounds according to the invention, formulated in the form of wettable powders (WP) or as emulsifiable concentrates (EC), were applied to the surface of the covering soil as an aqueous suspension or as an emulsion, with the addition of 0.5% of an additive, at an application rate of 600 litres of water per hectare (converted). Following treatment, the pots were placed in a greenhouse and kept under optimum growth conditions for the test plants. The visual grading of the damage to the test plants is carried out after ca. 3 weeks in comparison to untreated controls (herbicidal effect in percent (%): 100% effect = plants have died, 0% effect = as control plants).
# Amaranthus retroflexus [2] = assay: Herbicidal pre-emergence action; details: visual grading after ca. 3 weeks vs untreated controls
# Text: as §1, with “plants). Seeds of mono- and dicotyledonous weed plants were sown in plastic pots (double sowings with one species of mono- and one species of dicotyledonous weed plants per pot), in sandy loam, and covered with soil. The compounds according to the invention, formulated in the form of wettable powders (WP) or as emulsifiable concentrates (EC), were applied to the surface of the covering soil as an aqueous suspension or as an emulsion, with the addition of 0.5% of an additive, at an application rate of 600 litres of water per hectare (converted). Following treatment, the pots were placed in a greenhouse and kept under optimum growth conditions for the test plants. The visual grading of the damage to the test plants is carried out after ca. 3 weeks in comparison to untreated controls (herbicidal effect in percent (%): 100% effect = plants have died, 0% effect = as control plants).” for “plants).”
# Amaranthus retroflexus [3] = assay: Herbicidal post-emergence action; details: visual assessment after ca. 3 weeks vs untreated controls
# Text: (§2) Seeds of mono- and dicotyledonous weed plants were sown in plastic pots (double sowings with one species of mono- and one species of dicotyledonous weed plants per pot), in sandy loam, covered with soil and grown under controlled growth conditions. 2 to 3 weeks after sowing, the test plants were sprayed in the single-leaf stage. The compounds according to the invention, formulated in the form of wettable powders (WP) or as emulsifiable concentrates (EC), were sprayed onto the green plant parts as an aqueous suspension or as an emulsion, with the addition of 0.5% of an additive, at an application rate of 600 litres of water per hectare (converted). The test plants were placed in the greenhouse for ca. 3 weeks under optimum growth conditions, and then the effect of the preparations is assessed visually in comparison with untreated controls (herbicidal effect in percent (%): 100% effect = plants have died, 0% effect = as control plants). Seeds of mono- and dicotyledonous weed plants were sown in plastic pots (double sowings with one species of mono- and one species of dicotyledonous weed plants per pot), in sandy loam, covered with soil and grown under controlled growth conditions. 2 to 3 weeks after sowing, the test plants were sprayed in the single-leaf stage. The compounds according to the invention, formulated in the form of wettable powders (WP) or as emulsifiable concentrates (EC), are sprayed onto the green plant parts as an aqueous suspension or as an emulsion, with the addition of 0.5% of an additive, at an application rate of 600 litres of water per hectare (converted). The test plants were placed in the greenhouse for ca. 3 weeks under optimum growth conditions, and then the effect of the preparations is assessed visually in comparison with untreated controls (herbicidal effect in percent (%): 100% effect = plants have died, 0% effect = as control plants).
# Veronica persica [4] = assay: Herbicidal post-emergence action; details: visual assessment after ca. 3 weeks vs untreated controls
# Text: as §2
# Echinochloa crus-galli [5] = assay: Herbicidal pre-emergence action; details: 1280 g/ha, visual grading after ca. 3 weeks vs untreated controls
# Text: as §1
# Matricaria inodora [6] = assay: Herbicidal pre-emergence action; details: visual grading after ca. 3 weeks vs untreated controls
# Text: as §1, with “plants). Seeds of mono- and dicotyledonous weed plants were sown in plastic pots (double sowings with one species of mono- and one species of dicotyledonous weed plants per pot), in sandy loam, and covered with soil. The compounds according to the invention, formulated in the form of wettable powders (WP) or as emulsifiable concentrates (EC), were applied to the surface of the covering soil as an aqueous suspension or as an emulsion, with the addition of 0.5% of an additive, at an application rate of 600 litres of water per hectare (converted). Following treatment, the pots were placed in a greenhouse and kept under optimum growth conditions for the test plants. The visual grading of the damage to the test plants is carried out after ca. 3 weeks in comparison to untreated controls (herbicidal effect in percent (%): 100% effect = plants have died, 0% effect = as control plants).” for “plants).”
# Poa annua [7] = assay: Herbicidal pre-emergence action; details: visual grading after ca. 3 weeks vs untreated controls
# Text: as §1, with “plants). Seeds of mono- and dicotyledonous weed plants were sown in plastic pots (double sowings with one species of mono- and one species of dicotyledonous weed plants per pot), in sandy loam, and covered with soil. The compounds according to the invention, formulated in the form of wettable powders (WP) or as emulsifiable concentrates (EC), were applied to the surface of the covering soil as an aqueous suspension or as an emulsion, with the addition of 0.5% of an additive, at an application rate of 600 litres of water per hectare (converted). Following treatment, the pots were placed in a greenhouse and kept under optimum growth conditions for the test plants. The visual grading of the damage to the test plants is carried out after ca. 3 weeks in comparison to untreated controls (herbicidal effect in percent (%): 100% effect = plants have died, 0% effect = as control plants).” for “plants).”
# Stellaria media [8] = assay: Herbicidal pre-emergence action; details: visual grading after ca. 3 weeks vs untreated controls
# Text: as §1, with “plants). Seeds of mono- and dicotyledonous weed plants were sown in plastic pots (double sowings with one species of mono- and one species of dicotyledonous weed plants per pot), in sandy loam, and covered with soil. The compounds according to the invention, formulated in the form of wettable powders (WP) or as emulsifiable concentrates (EC), were applied to the surface of the covering soil as an aqueous suspension or as an emulsion, with the addition of 0.5% of an additive, at an application rate of 600 litres of water per hectare (converted). Following treatment, the pots were placed in a greenhouse and kept under optimum growth conditions for the test plants. The visual grading of the damage to the test plants is carried out after ca. 3 weeks in comparison to untreated controls (herbicidal effect in percent (%): 100% effect = plants have died, 0% effect = as control plants).” for “plants).”
# Echinochloa crus-galli [9] = assay: Herbicidal post-emergence action; details: 1280 g/ha, visual assessment after ca. 3 weeks vs untreated controls
# Text: (§3) Seeds of mono- and dicotyledonous weed plants were sown in plastic pots (double sowings with one species of mono- and one species of dicotyledonous weed plants per pot), in sandy loam, covered with soil and grown under controlled growth conditions. 2 to 3 weeks after sowing, the test plants were sprayed in the single-leaf stage. The compounds according to the invention, formulated in the form of wettable powders (WP) or as emulsifiable concentrates (EC), were sprayed onto the green plant parts as an aqueous suspension or as an emulsion, with the addition of 0.5% of an additive, at an application rate of 600 litres of water per hectare (converted). The test plants were placed in the greenhouse for ca. 3 weeks under optimum growth conditions, and then the effect of the preparations is assessed visually in comparison with untreated controls (herbicidal effect in percent (%): 100% effect = plants have died, 0% effect = as control plants).
# Stellaria media [10] = assay: Herbicidal post-emergence action; details: 1280 g/ha, visual assessment after ca. 3 weeks vs untreated controls
# Text: as §3
# Poa annua [11] = assay: Herbicidal post-emergence action; details: visual assessment after ca. 3 weeks vs untreated controls
# Text: as §2
# Setaria viridis [12] = assay: Herbicidal post-emergence action; details: visual assessment after ca. 3 weeks vs untreated controls
# Text: as §2
# Lolium rigidum [13] = assay: Herbicidal pre-emergence action; details: visual grading after ca. 3 weeks vs untreated controls
# Text: as §1, with “plants). Seeds of mono- and dicotyledonous weed plants were sown in plastic pots (double sowings with one species of mono- and one species of dicotyledonous weed plants per pot), in sandy loam, and covered with soil. The compounds according to the invention, formulated in the form of wettable powders (WP) or as emulsifiable concentrates (EC), were applied to the surface of the covering soil as an aqueous suspension or as an emulsion, with the addition of 0.5% of an additive, at an application rate of 600 litres of water per hectare (converted). Following treatment, the pots were placed in a greenhouse and kept under optimum growth conditions for the test plants. The visual grading of the damage to the test plants is carried out after ca. 3 weeks in comparison to untreated controls (herbicidal effect in percent (%): 100% effect = plants have died, 0% effect = as control plants).” for “plants).”
# Kochia scoparia = assay: Herbicidal post-emergence action; details: visual assessment after ca. 3 weeks vs untreated controls
# Text: as §2
# Setaria viridis [14] = assay: Herbicidal pre-emergence action; details: 1280 g/ha, visual grading after ca. 3 weeks vs untreated controls
# Text: as §1
# Alopecurus myosuroides = assay: Herbicidal post-emergence action; details: 1280 g/ha, visual assessment after ca. 3 weeks vs untreated controls
# Text: as §3
# Lolium rigidum [15] = assay: Herbicidal post-emergence action; details: 1280 g/ha, visual assessment after ca. 3 weeks vs untreated controls
# Text: as §3
# Matricaria inodora [16] = assay: Herbicidal post-emergence action; details: 1280 g/ha, visual assessment after ca. 3 weeks vs untreated controls
# Text: as §3
SMILES,herbicidal effect AMARE (Amaranthus retroflexus [2]; 1280 g/ha),herbicidal effect AMARE (Amaranthus retroflexus [3]; 1280 g/ha),herbicidal effect VERPE (Veronica persica [4]; 1280 g/ha),herbicidal effect ECHCG (Echinochloa crus-galli [5]),herbicidal effect MATIN (Matricaria inodora [6]; 1280 g/ha),herbicidal effect POAAN (Poa annua [7]; 1280 g/ha),herbicidal effect STEME (Stellaria media [8]; 1280 g/ha),herbicidal effect STEME (Stellaria media [10]),herbicidal effect AMARE (Amaranthus retroflexus [3]; 320 g/ha),herbicidal effect POAAN (Poa annua [11]; 320 g/ha),herbicidal effect POAAN (Poa annua [11]; 1280 g/ha),herbicidal effect SETVI (Setaria viridis [12]; 1280 g/ha),herbicidal effect VERPE (Veronica persica [4]; 320 g/ha),herbicidal effect LOLRI (Lolium rigidum [13]; 1280 g/ha),herbicidal effect POAAN (Poa annua [7]; 320 g/ha),herbicidal effect KCHSC (Kochia scoparia; 320 g/ha),herbicidal effect KCHSC (Kochia scoparia; 1280 g/ha),also measured
"O=C(Nc1ncns1)c1ncc(Cl)cc1C(F)(F)F [Example I-036, 5-chloro-N-(1,2,4-thiadiazol-5-yl)-3-(trifluoromethyl)pyridine-2-carboxamide]",90%,90%,90%,,,,,,,,,,,,,,,herbicidal effect VERPE (Veronica persica [1]): 90%
"O=C(Nc1ncns1)c1nc(Cl)ccc1Br [Example I-039, 3-bromo-6-chloro-N-(1,2,4-thiadiazol-5-yl)pyridine-2-carboxamide]",100%,100%,100%,90%,100%,90%,90%,90%,100%,90%,90%,90%,90%,,,,,herbicidal effect ECHCG (Echinochloa crus-galli [9]): 90%
"O=C(Nc1ncns1)c1nc(Cl)ccc1OC(F)(F)F [Example I-013, 6-chloro-N-(1,2,4-thiadiazol-5-yl)-3-(trifluoromethoxy)pyridine-2-carboxamide]",100%,100%,,,,100%,90%,90%,,90%,100%,,,90%,100%,90%,100%,herbicidal effect AMARE (Amaranthus retroflexus [2]; 320 g/ha): 90%
"O=C(Nc1nc(Cl)ns1)c1nc(F)ccc1Br [Example I-017, 3-bromo-N-(3-chloro-1,2,4-thiadiazol-5-yl)-6-fluoro-pyridine-2-carboxamide]",100%,90%,90%,90%,100%,90%,90%,90%,90%,90%,90%,90%,90%,90%,90%,90%,90%,herbicidal effect SETVI (Setaria viridis [14]): 100%; herbicidal effect LOLRI (Lolium rigidum [13]; 320 g/ha): 90%; herbicidal effect MATIN (Matricaria inodora [6]; 320 g/ha): 100%; herbicidal effect STEME (Stellaria media [8]; 320 g/ha): 90%; herbicidal effect ALOMY (Alopecurus myosuroides): 90%; herbicidal effect LOLRI (Lolium rigidum [15]): 90%; herbicidal effect MATIN (Matricaria inodora [16]): 90%; herbicidal effect SETVI (Setaria viridis [12]; 320 g/ha): 90%
